Values of other authors, collected in patent US20120021048A1, “Combination Dosage Compositions Comprising a Cholesterol-Lowering Agent, a Renin-Angiotensin System Inhibitor, an Antioxidant Agent and an Antiplatelet Agent for Treatment and Prevention of Cardiovascular Disease” (Nucitec S.A. de C.V., priority 2010, published 2012).
Where two headings read alike, the source gives them in different places.

How the values were obtained:
[1] = expected value, single agent at polypill dose, cited from earlier work
[2] = expected value; doses of polypill (atorvastatin 20 mg, lycopene 30 mg); cited from earlier work
macrophages = conditions: lycopene added to macrophages in cell culture; cited from earlier work
[3] = in vivo pure lycopene supplementation; cited from earlier work

SMILES	% reduction in risk of Ischaemic heart disease [1]	% reduction in risk of Ischaemic heart disease ([1]; listed as acetylsalicylic acid)	Reduction in concentration (LDL-cholesterol) [2]	% reduction in risk of Ischaemic heart disease ([1]; listed as atorvastatin)	suppression of cellular cholesterol synthesis (macrophages)	reduction of plasma LDL cholesterol concentration [3]
CC(=O)Oc1ccccc1C(=O)O [Acetylsalicylic Acid]	32%	about 32%	–	–	–	–
CC(C)c1c(C(=O)Nc2ccccc2)c(-c2ccccc2)c(-c2ccc(F)cc2)n1CC[C@@H](O)C[C@@H](O)CC(=O)O [Atorvastatin]	61%	–	70 mg/dL	about 61%	–	–
CC(C)=CCC/C(C)=C/C=C/C(C)=C/C=C/C(C)=C/C=C/C=C(C)/C=C/C=C(C)/C=C/C=C(\C)CCC=C(C)C [Lycopene]	~20%	–	14 to 20 mg/dL	–	approximately 40%	14%
CCOC(=O)[C@H](CCc1ccccc1)N[C@@H](C)C(=O)N1[C@H](C(=O)O)C[C@@H]2CCC[C@@H]21 [Ramipril]	~25%	–	–	–	–	–
